Reference: US9688816B2, “Polyetherimide compositions and methods for the manufacture and use thereof” (SABIC Global Technologies B.V., priority 2011, dated 2017)
pIC50: −log10 of the molar value. “Also recorded” adds a separate entry of the source.

Key:
[1] = tested on: alpha or beta in vitro estradiol receptors; test: competitive radio-ligand binding assay, statements that do not separate alpha and beta; set-up: species or system human; details: alpha or beta receptor not separated; for estradiol binding / estradiol displacement: highest concentration 2.5×E-4 M
[2] = target: recombinant human estradiol receptors (rhER) alpha (α) (Homo sapiens (Human), UniProt P03372); test: competitive radio-ligand binding assay, rhER alpha; details: at as high as 2.5×E-4 molar concentration
[3] = target: recombinant human estradiol receptors (rhER) beta 1 (β1) (Homo sapiens (Human), UniProt Q92731); test: competitive radio-ligand binding assay, rhER beta 1; details: at as high as 2.5×E-4 molar concentration
Sequence of recombinant human estradiol receptors (rhER) beta 1 (β1) (Q92731 whole entry): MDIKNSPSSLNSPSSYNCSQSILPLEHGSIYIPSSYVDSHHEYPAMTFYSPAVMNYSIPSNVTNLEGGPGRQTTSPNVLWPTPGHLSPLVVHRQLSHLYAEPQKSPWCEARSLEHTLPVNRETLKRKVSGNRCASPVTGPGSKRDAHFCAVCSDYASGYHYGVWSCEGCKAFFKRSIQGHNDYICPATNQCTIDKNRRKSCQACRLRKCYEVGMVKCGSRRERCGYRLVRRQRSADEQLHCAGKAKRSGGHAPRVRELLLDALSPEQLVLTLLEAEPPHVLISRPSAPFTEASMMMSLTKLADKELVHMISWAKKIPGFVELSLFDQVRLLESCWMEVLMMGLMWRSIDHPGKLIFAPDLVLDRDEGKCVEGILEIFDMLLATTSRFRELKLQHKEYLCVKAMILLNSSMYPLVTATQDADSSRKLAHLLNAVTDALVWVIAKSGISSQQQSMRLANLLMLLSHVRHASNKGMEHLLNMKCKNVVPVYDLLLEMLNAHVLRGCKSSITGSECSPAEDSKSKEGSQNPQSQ

Sequence of recombinant human estradiol receptors (rhER) alpha (α) (P03372 whole entry): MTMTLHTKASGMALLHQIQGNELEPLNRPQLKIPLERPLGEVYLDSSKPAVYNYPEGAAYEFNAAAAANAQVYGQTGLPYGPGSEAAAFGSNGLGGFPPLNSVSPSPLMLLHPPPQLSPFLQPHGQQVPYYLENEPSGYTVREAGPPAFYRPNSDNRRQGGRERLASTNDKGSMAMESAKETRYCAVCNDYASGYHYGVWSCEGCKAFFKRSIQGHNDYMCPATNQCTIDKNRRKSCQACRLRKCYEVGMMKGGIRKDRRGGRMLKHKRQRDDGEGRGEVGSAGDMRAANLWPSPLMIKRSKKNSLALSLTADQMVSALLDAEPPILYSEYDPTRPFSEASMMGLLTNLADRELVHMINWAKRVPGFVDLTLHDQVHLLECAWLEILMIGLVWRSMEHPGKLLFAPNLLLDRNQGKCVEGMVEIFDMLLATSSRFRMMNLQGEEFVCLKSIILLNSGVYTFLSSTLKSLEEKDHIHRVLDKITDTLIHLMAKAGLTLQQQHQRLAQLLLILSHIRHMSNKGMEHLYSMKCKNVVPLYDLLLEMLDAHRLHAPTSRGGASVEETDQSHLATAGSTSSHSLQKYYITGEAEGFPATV

| Compound | estradiol binding / estradiol displacement [1] | also measured |
| --- | --- | --- |
| Oc1ccc(Oc2ccc(O)cc2)cc1 [Example C, Dihydroxy Diphenyl Ether, reference compound] | displace estradiol at low concentrations |  |
| Bis Hydroxy Phenyl Menthane [reference compound] | displace estradiol at low concentrations |  |
| Spiro Biindane Bisphenol [Example 5] | no displacement; also recorded: no estradiol binding |  |
| C[C@]12CC[C@@H]3c4ccc(O)cc4CC[C@H]3[C@@H]1CC[C@@H]2O [A, 17b-estradiol, reference compound] | binds at a very low concentration |  |
| Benzophenone bisphenol [reference compound] | undesirable estradiol displacement at low concentration |  |
| Cc1cc(C(C)(C)c2cc(C)c(O)c(C)c2)cc(C)c1O [Example 1, Tetra Methyl BPA] | no estradiol binding |  |
| Biphenol [Example 6] | no estradiol binding | estradiol displacement at the alpha receptor [2]: no displacement |
| O=C1OC(c2ccc(O)cc2)(c2ccc(O)cc2)c2ccccc21 [O, Phenolphthalein, reference compound] | undesirable estradiol displacement at low concentration |  |
| Oc1ccccc1 [Example 2, Phenol] | no estradiol binding | pIC50 ([1]; highest concentration tested 2.5×E-4 M): ≤ 3.60 |
| CC(C)(c1ccccc1)c1ccc(O)cc1 [B, p-Cumyl Phenol, reference compound] | displace estradiol at low concentrations |  |
| Cc1cc(C2(c3ccc(O)c(C)c3)CCCCC2)ccc1O [G, Dimethyl Cyclohexyl Bisphenol, reference compound] | displace estradiol at low concentrations |  |
| Oc1cccc(O)c1 [Example 4, Resorcinol] | no estradiol binding | estradiol displacement at the beta receptor [3]: no detectible estradiol displacement; estradiol displacement at the alpha receptor [2]: no detectible estradiol displacement |
| CC(C)(c1ccc(O)cc1)c1cccc(C(C)(C)c2ccc(O)cc2)c1 [K, Bisphenol M, reference compound] | displace estradiol at low concentrations |  |
| CC(C)(C)c1cc(O)c(C(C)(C)C)cc1O [Example 7, Di t-Butyl Hydroquinone] | no estradiol binding | estradiol displacement at the beta receptor [3]: no displacement; estradiol displacement at the alpha receptor [2]: no displacement; estradiol binding / estradiol displacement ([1]; listed as di-tert butyl hydroquinone): no displacement |
| O=C1c2ccccc2C(c2ccc(O)cc2)(c2ccc(O)cc2)N1c1ccccc1 [Example 3, N-Phenyl Phenolphthalein Bisphenol] | no estradiol binding | estradiol displacement at the beta receptor [3]: no detectible estradiol displacement; estradiol displacement at the alpha receptor [2]: no detectible estradiol displacement; estradiol binding / estradiol displacement ([1]; listed as N-phenyl phenyl phenolphthalein): no displacement |
| Cc1cc(O)ccc1O [Example 8, Methyl Hydroquinone] | no displacement; also recorded: no estradiol binding | estradiol displacement at the beta receptor [3]: no alpha or beta estradiol displacement |
| CC(c1ccccc1)(c1ccc(O)cc1)c1ccc(O)cc1 [D, Bisphenol Acetophenone, reference compound] | displace estradiol at low concentrations |  |
| Dimethyl Acetophenone Bisphenol [reference compound] | displace estradiol at low concentrations |  |
| Diphenolic Acid Methyl Ester [F, reference compound] | displace estradiol at low concentrations |  |
